This assay has as its system Glo-Response ARE-luc2P HEK293 cell line. The experiment in a line: ARE luciferase reporter cell-based assay.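 Further: luciferase signal tracks Nrf2 activation of the ARE once compounds disrupt KEAP1-Nrf2 binding, read with One-Glo reagent, DMSO serving as low control.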 The conditions noted are these: average of results obtained.

This is an account of results in patent US10947252B2, “Inhibitors of KEAP1-Nrf2 protein-protein interaction” (Janssen Pharmaceutica NV, priority 2018, dated 2021).

Where the note is “Homo sapiens, HEK293, 24 h”, `Cc1ccc([C@H](CC(=O)O)c2ccc3c(nnn3C3CC3)c2C)cc1CN1C[C@]2(C)CCCN2c2ncccc2S1(=O)=O` (relative stereo) [Example 219, (*S)-3-(1-Cyclopropyl-4-methyl-1H-benzo[d][1,2,3]triazol-5-yl)-3-(4-methyl-3-(((*S)-7a-methyl-5,5-dioxido-7a,8,9,10-tetrahydropyrido[2,3-f]pyrrolo[2,1-d][1,2,5]thiadiazepin-6(7H)-yl)methyl)phenyl)propanoic Acid] came in with an EC50 of 4.5 nM. Same read-out and setting: for `Cc1ccc([C@H](CC(=O)O)c2ccn3c(C(F)(F)F)nnc3c2C)cc1CN1CC2CCCCN2c2ncc(Cl)cc2S1(=O)=O` (mixture of isomers) [Example 191, (3*S)-3-(3-((3-Chloro-5,5-dioxido-7,7a,8,9,10,11-hexahydro-6H-dipyrido[2,1-d:2′,3′-f][1,2,5]thiadiazepin-6-yl)methyl)-4-methylphenyl)-3-(8-methyl-3-(trifluoromethyl)-[1,2,4]triazolo[4,3-a]pyridin-7-yl)propanoic Acid] the value was 1.9 nM; for `Cc1ccc(C(c2ccn3c(C(F)(F)F)nnc3c2)C(C)(C)C(=O)O)cc1CN1CC2(CCOCC2)Oc2ncccc2S1(=O)=O` (stereo not drawn) [Example 319, 3-(3-((1′,1′-Dioxido-2,3,5,6-tetrahydrospiro[pyran-4,4′-pyrido[2,3-b][1,4,5]oxathiazepin]-2′(3′H)-yl)methyl)-4-methylphenyl)-2,2-dimethyl-3-(3-(trifluoromethyl)-[1,2,4]triazolo[4,3-a]pyridin-7-yl)propanoic Acid], 44.5 nM. On the same count and under the same terms, in the case of `CCn1nnc2c(C)c(C(CC(=O)O)c3ccc(C)c(CN4CC(C)(C)Oc5ccccc5S4(=O)=O)c3)ccc21` (racemic) [Example 151, (R/S)-3-(3-((4,4-Dimethyl-1,1-dioxido-3,4-dihydro-2H-benzo[b][1,4,5]oxathiazepin-2-yl)methyl)-4-methylphenyl)-3-(1-ethyl-4-methyl-1H-benzo[d][1,2,3]triazol-5-yl)propanoic Acid] it was 10 nM; in that of `Cc1ccc([C@@H](c2ccc3c(nnn3C3CC3)c2C)C(C)(C)C(=O)O)cc1CN1CC2(CCNCC2)Oc2ncccc2S1(=O)=O` (single isomer, unassigned) [Example 648, (*S)-3-(1-Cyclopropyl-4-methyl-1H-benzo[d][1,2,3]triazol-5-yl)-3-(3-((1′,1′-dioxidospiro[piperidine-4,4′-pyrido[2,3-b][1,4,5]oxathiazepin]-2′(3′H)-yl)methyl)-4-methylphenyl)-2,2-dimethylpropanoic Acid], 1350 nM; in that of `CCn1nnc2c(C)c([C@H](c3ccc(C)c(CN4CC5(CCOCC5)Oc5ncccc5S4(=O)=O)c3)C(C)(C)C(=O)O)ccc21` (single isomer, unassigned) [Example 15, (*S)-3-(3-((1′,1′-Dioxido-2,3,5,6-tetrahydrospiro[pyran-4,4′-pyrido[2,3-b][1,4,5]oxathiazepin]-2′(3′H)-yl)methyl)-4-methylphenyl)-3-(1-ethyl-4-methyl-1H-benzo[d][1,2,3]triazol-5-yl)-2,2-dimethylpropanoic Acid], 0.3 nM. Same read-out and setting: for `Cc1ccc([C@H](c2ccn3c(C(F)(F)F)nnc3c2C)C(C)(C)C(=O)O)cc1CN1CC2(CCOCC2)Oc2nc(CCC(=O)NCCOCCN)ccc2S1(=O)=O` (single isomer, unassigned) [Example 344, (*R)-3-(3-((7′-(3-((2-(2-Aminoethoxy)ethyl)amino)-3-oxopropyl)-1′,1′-dioxido-2,3,5,6-tetrahydrospiro[pyran-4,4′-pyrido[2,3-b][1,4,5]oxathiazepin]-2′(3′H)-yl)methyl)-4-methylphenyl)-2,2-dimethyl-3-(8-methyl-3-(trifluoromethyl)-[1,2,4]triazolo[4,3-a]pyridin-7-yl)propanoic Acid] the value was 4930 nM; for `Cc1cnc2c(c1)S(=O)(=O)N(Cc1nc([C@@H](CC(=O)O)c3ccn4c(C(F)(F)F)nnc4c3C)ccc1C)C[C@@H]1CCCCN21` (relative stereo) [Example 488, (*S)-3-(8-Methyl-3-(trifluoromethyl)-[1,2,4]triazolo[4,3-a]pyridin-7-yl)-3-(5-methyl-6-(((*S)-3-methyl-5,5-dioxido-7,7a,8,9,10,11-hexahydro-6H-dipyrido[2,1-d:2′,3′-f][1,2,5]thiadiazepin-6-yl)methyl)pyridin-2-yl)propanoic Acid], 11.9 nM; for `CCn1nnc2c(C)c([C@H](CC(=O)O)c3ccc(C)c(CN4C[C@@H]5COCCN5c5ncccc5S4(=O)=O)c3)ccc21` (single isomer, unassigned) [Example 140, (*R)-3-(3-(((*R)-5,5-Dioxido-7a,8,10,11-tetrahydro-[1,4]oxazino[3,4-d]pyrido[2,3-f][1,2,5]thiadiazepin-6(7H)-yl)methyl)-4-methylphenyl)-3-(1-ethyl-4-methyl-1H-benzo[d][1,2,3]triazol-5-yl)propanoic Acid], 19 nM. As for `CCn1nnc2c(C)c(C(CC(=O)O)c3ccc(C)c(CN4C[C@H]5COCCN5c5ncccc5S4(=O)=O)c3)ccc21` (mixture of isomers) [Example 135, (R/S)-3-(3-(((*S)-5,5-Dioxido-7a,8,10,11-tetrahydro-[1,4]oxazino[3,4-d]pyrido[2,3-f][1,2,5]thiadiazepin-6(7H)-yl)methyl)-4-methylphenyl)-3-(1-ethyl-4-methyl-1H-benzo[d][1,2,3]triazol-5-yl)propanoic Acid], the response (Homo sapiens, HEK293, 24 h) was half-maximal at 24 nM (EC50). The EC50 values of the last two compounds are within 1.5-fold of each other. As to `Cc1cnc2c(c1)S(=O)(=O)N(Cc1cc([C@@H](c3ccn4c(C(F)(F)F)nnc4c3C)C(C)(C)C(=O)O)ccc1C)CC1(CCOCC1)O2` (single isomer, unassigned) [Example 407, (*S)-2,2-dimethyl-3-(4-methyl-3-((8′-methyl-1′,1′-dioxido-2,3,5,6-tetrahydrospiro[pyran-4,4′-pyrido[2,3-b][1,4,5]oxathiazepin]-2′(3′H)-yl)methyl)phenyl)-3-(8-methyl-3-(trifluoromethyl)-[1,2,4]triazolo[4,3-a]pyridin-7-yl)propanoic Acid], the EC50 (24 hours) stood at 1.47 nM.

Turning to `Cc1cnc([C@H](c2ccn3c(C(F)F)nnc3c2C)C(C)(C)C(=O)O)cc1CN1CC2(CCOCC2)Oc2nc(OCCN3CCCCC3)c(C)cc2S1(=O)=O` (single isomer, unassigned) [Example 641, (*R)-3-(3-(Difluoromethyl)-8-methyl-[1,2,4]triazolo[4,3-a]pyridin-7-yl)-2,2-dimethyl-3-(5-methyl-4-((8′-methyl-1′,1′-dioxido-7′-(2-(piperidin-1-yl)ethoxy)-2,3,5,6-tetrahydrospiro[pyran-4,4′-pyrido[2,3-b][1,4,5]oxathiazepin]-2′(3′H)-yl)methyl)pyridin-2-yl)propanoic Acid], the EC50 (Homo sapiens, HEK293, 24 h) turned out to be 2290 nM. This counts as single-digit micromolar. For `Cc1ccc([C@H](c2ccn3c(C(F)(F)F)nnc3c2C)C(C)C(=O)O)nc1CN1C[C@@H]2CCCCN2c2ncc(F)cc2S1(=O)=O` (relative stereo) [Example 506, (3*S)-3-(6-(((S)-3-fluoro-5,5-dioxido-7,7a,8,9,10,11-hexahydro-6H-dipyrido[2,1-d:2′,3′-f][1,2,5]thiadiazepin-6-yl)methyl)-5-methylpyridin-2-yl)-2-methyl-3-(8-methyl-3-(trifluoromethyl)-[1,2,4]triazolo[4,3-a]pyridin-7-yl)propanoic Acid], a half-maximal effect (Homo sapiens, HEK293, 24 h) (EC50) was put at 7.83 nM. On the same count and under the same terms, for `Cc1ccc([C@H](c2ccn3c(C(F)(F)F)nnc3c2C)C(C)C(=O)O)cc1CN1C[C@@H]2CCCCN2c2ncccc2S1(=O)=O` (relative stereo) [Example 130, (3*R)-3-(3-(((*S)-5,5-Dioxido-7,7a,8,9,10,11-hexahydro-6H-dipyrido[2,1-d:2′,3′-f][1,2,5]thiadiazepin-6-yl)methyl)-4-methylphenyl)-2-methyl-3-(8-methyl-3-(trifluoromethyl)-[1,2,4]triazolo[4,3-a]pyridine-7-yl)propanoic Acid] the value was 54.8 nM; for `CC[C@@H]1CN(Cc2cc([C@H](CC(=O)O)c3ccn4c(C(F)(F)F)nnc4c3C)ccc2C)S(=O)(=O)c2cc(C)cnc2O1` (relative stereo) [Example 194, (*S)-3-(3-(((*R)-4-Ethyl-8-methyl-1,1-dioxido-3,4-dihydro-2H-pyrido[2,3-b][1,4,5]oxathiazepin-2-yl)methyl)-4-methylphenyl)-3-(8-methyl-3-(trifluoromethyl)-[1,2,4]triazolo[4,3-a]pyridin-7-yl)propanoic Acid], 2 nM.

Take `Cc1cc2cc([C@H](c3ccc(C)c(CN4CC5(CCOCC5)Oc5nc(OCCN6CCCCC6)c(C)cc5S4(=O)=O)c3)C(C)(C)C(=O)O)n(C)c2nn1` (single isomer, unassigned) [Example 349, (*R)-3-(3,7-Dimethyl-7H-pyrrolo[2,3-c]pyridazine-6-yl)-2,2-dimethyl-3-(4-methyl-3-((8′-methyl-1′,1′-dioxido-7′-(2-(piperidine-1-yl)-ethoxy)2,3,5,6-tetrahydrospiro[pyran-4,4′-pyrido[2,3-b][1,4,5]oxathiazepin]-2′,(3′H)-yl)methyl)phenyl)propanoic Acid]: the concentration giving a half-maximal response (EC50) (Homo sapiens, HEK293, 24 h) came out at 1540 nM. This EC50 is about 770-fold higher than that of the compound before.

The compound `CCn1nnc2c(C)c([C@@H](CC(=O)O)c3ccc(C)c(CN4C[C@@H]5CCCN5c5ccccc5S4(=O)=O)c3)ccc21` (relative stereo) [Example 148, (*S)-3-[3-[(5,5-Dioxo-7a,8,9,10-tetrahydro-7H-pyrrolo[2,1-d][1,2,5]benzothiadiazepin-6-yl)methyl]-4-methyl-phenyl]-3-(1-ethyl-4-methyl-benzotriazol-5-yl)propanoic Acid] gave a half-maximal effective concentration (EC50) (Homo sapiens, HEK293, 24 h) of 15 nM. Against the preceding compound, the EC50 is about 100-fold lower.

`Cc1cnc2c(c1)S(=O)(=O)N(Cc1cc([C@@H](CC(=O)O)c3ccn4c(C(F)F)nnc4c3C)ccc1C)C[C@@H]1CCCCN21` (stereo in doubt) [Example 501, (*R)-3-(3-(Difluoromethyl)-8-methyl-[1,2,4]triazolo[4,3-a]pyridin-7-yl)-3-(4-methyl-3-(((*S)-3-methyl-5,5-dioxido-7,7a,8,9,10,11-hexahydro-6H-dipyrido[2,1-d:2′,3′-f][1,2,5]thiadiazepin-6-yl)methyl)phenyl)propanoic Acid]: the half-maximal effective concentration (EC50) (Homo sapiens, HEK293, 24 h) was found to be 34.5 nM.
